Test results published in patent US10252984B2, “Inhibiting G protein coupled receptor 6 kinase polypeptides” (Mayo Foundation for Medical Education and Research, priority 2011, dated 2019).

What follows are compounds tested against GRK6, recombinant full-length GST-tagged human protein (Homo sapiens (Human), UniProt P43250) (assay: GRK6 LabChip microfluidic mobility shift kinase assay). Details: 8-point concentration-response, top concentration 60 μM, ATP 12 μM (Km).
Assay type: biochemical
Procedure: […] All determinations were performed in duplicates. To obtain the IC50 values and the Hill coefficient, the 4-parameter logistic equation was fitted to the data by non-linear regression using XLFit software.

Chain of GRK6, recombinant full-length GST-tagged human protein (P43250 whole entry): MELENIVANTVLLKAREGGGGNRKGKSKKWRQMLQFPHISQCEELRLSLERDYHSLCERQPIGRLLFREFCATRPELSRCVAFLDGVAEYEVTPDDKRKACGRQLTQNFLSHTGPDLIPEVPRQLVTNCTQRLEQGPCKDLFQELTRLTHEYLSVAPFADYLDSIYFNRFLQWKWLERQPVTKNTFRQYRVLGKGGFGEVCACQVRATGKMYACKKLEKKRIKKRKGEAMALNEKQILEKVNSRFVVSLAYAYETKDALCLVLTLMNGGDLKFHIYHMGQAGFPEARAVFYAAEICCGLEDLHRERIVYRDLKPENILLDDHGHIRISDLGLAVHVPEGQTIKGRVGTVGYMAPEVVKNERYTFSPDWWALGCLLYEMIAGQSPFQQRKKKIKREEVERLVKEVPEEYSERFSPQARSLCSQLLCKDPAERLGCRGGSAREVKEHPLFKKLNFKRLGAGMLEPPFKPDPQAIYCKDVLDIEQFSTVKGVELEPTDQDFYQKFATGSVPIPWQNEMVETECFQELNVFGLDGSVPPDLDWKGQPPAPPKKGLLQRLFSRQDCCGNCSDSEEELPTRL

`CCOC(=O)c1ccc(CC(=O)c2ccc(O)c(O)c2O)o1` and `O=c1cc(-c2ccc(O)cc2)oc2cc(O)c(O)c(O)c12` are within 1.5-fold of each other in IC50: 7.05 µM for the first, 6.61 µM for the second.

Going from `COc1cc(/C=C2/SC(=S)N(c3cccnc3)C2=O)ccc1O` to `Cc1cccc(NC2=NC(=O)/C(=C/c3ccc(O)c(O)c3)S2)c1C`, the IC50 falls from 40.6 µM to 7.11 µM (5.7-fold).

First: Oc1ccc(-c2nc3ccc4ccccc4c3c3c2CCC3)cc1O
Second: COc1ccc(-c2cc(=O)oc3c(O)c(O)ccc23)cc1
The IC50 of the first is 4-fold higher: 28.4 µM for the first, 7.16 µM for the second.

`CCN(CC)c1ccc(C2Nc3cccc4cccc(c34)N2)c(O)c1` and `C1=Nc2cccc3cccc(c23)N1` are within 1.5-fold of each other in IC50: 8.44 µM for the first, 12.5 µM for the second.

`Cc1cc(NC(c2ccccn2)c2ccc3cccnc3c2O)no1` (stereo not drawn) and `CCOc1ccc(NC(c2ccccn2)c2ccc3cccnc3c2O)cc1` (stereo not drawn) are within 1.5-fold of each other in IC50: 6.45 µM for the first, 4.48 µM for the second.

Compared with `Oc1c(C(Nc2ccccn2)c2cccnc2)ccc2cccnc12` (stereo not drawn), `COc1ccc(-c2cnc(-c3cccnc3)o2)cc1` is higher in IC50: 6.75 µM for the first, greater than 60 µM for the second.

`Cc1nc2ccccn2c1-c1csc(Nc2ccc(N)cc2)n1` and `CC(=O)Nc1ccc(Nc2nnc(-c3ccc(O)cc3)c3ccccc23)cc1` cannot be ordered by IC50: greater than 60 µM for the first, greater than 60 µM for the second.

Going from `CCn1c(COc2ccccc2)nnc1SCCC(=O)O` to `Cc1cccc(-c2nnc(SCC(=O)O)[nH]2)c1`, the IC50 falls from greater than 60 µM to 1.44 µM.

Compared with `N#CC1=C(N)Oc2cc(N)ccc2C1c1cc2cc3c(cc2nc1Cl)OCO3` (stereo not drawn), `N#CC1=C(N)Oc2cc(N)ccc2C1c1cccs1` (stereo not drawn) is 1.8-fold higher in IC50: 6.48 µM for the first, 11.8 µM for the second.

`Cc1ccc(-c2ccccc2NS(=O)(=O)c2ccc(S(=O)(=O)N3CCCCCC3)cc2)o1` and `O=S(=O)(Nc1ccc(-n2cnnn2)cc1)c1ccc(S(=O)(=O)N2CCCCCC2)cc1` cannot be ordered by IC50: greater than 60 µM for the first, greater than 60 µM for the second.

`CCNC(=S)N(CCO)Cc1cc2cc3c(cc2[nH]c1=O)OCO3` and `CCCCC(CC)CNC(=O)c1ccc(N/N=C2\C(=O)Nc3ccc(Br)cc32)cc1` (stereo not drawn) cannot be ordered by IC50: greater than 60 µM for the first, greater than 60 µM for the second.

Compared with `CCOc1cc(-c2ccc(O)c(O)c2)cc(=O)c2c(C)oc(C)c12`, `CCOc1cccc(=O)c2c(C)[nH]c(C)c12` is 1.7-fold lower in IC50: 4.41 µM for the first, 2.55 µM for the second. The second is the more potent here.

Compared with `NC(=O)c1cc(N)c2c(c1N)C(=O)c1ccccc1C2=O`, `Nc1ccc2c3c1C(=O)OC3(O)c1ccccc1C2=O` (stereo not drawn) is 3.7-fold higher in IC50: 12.7 µM for the first, 47 µM for the second. The first is the more potent here.

Compared with `O=C1Nc2ccc(S(=O)(=O)N3CCCCC3)c3cccc1c23`, `CCOc1cccc(=O)c2c(C)n(-c3ccc(C)cc3)c(C)c12` is lower in IC50: greater than 60 µM for the first, 3.4 µM for the second.

`Cc1ccc(C2C(C#N)=C(N)Oc3cc(N)ccc32)cc1` (stereo not drawn) and `Nc1ccc(CCc2nc3cc(N)ccc3o2)cc1` are within 1.5-fold of each other in IC50: 26 µM for the first, 17.8 µM for the second.

Compared with `COCCNC(=O)CN(C(=O)c1snc(C(N)=O)c1N)c1ccccc1`, `CCCCCn1c(N)c(C(=O)OC)c2nc3ccccc3nc21` is lower in IC50: greater than 60 µM for the first, 1.03 µM for the second. The second is the more potent here.

First: Cc1cc2c(C(C)C)c(O)c(O)c(/C=N/CCCN3CCOCC3)c2c(O)c1-c1c(C)cc2c(C(C)C)c(O)c(O)c(/C=N/CCCN3CCOCC3)c2c1O
Second: Cc1cc2c(c(O)c1-c1c(C)cc3c(c1O)/C(=C/NCCCN1CCOCC1)C(=O)C(O)=C3C(C)C)/C(=C/NCCCN1CCOCC1)C(=O)C(O)=C2C(C)C
The IC50 of the first is 1.7-fold lower: 10.1 µM for the first, 16.9 µM for the second. The first is the more potent here.

Going from `CCN(CC)CCn1c2ccccc2c2cnc(N)c(C#N)c21` to `CCCCn1c(N)c(C#N)c2nc3ccccc3nc21`, the IC50 falls from 18.8 µM to 1.56 µM (12-fold). The second is the more potent here.

`CCN(CC)c1ccc(C(c2c(C)n[nH]c2O)c2c(C)n[nH]c2O)cc1` and `O=c1cc(-c2ccccc2)oc2cc(O)c(O)c(O)c12` are within 1.5-fold of each other in IC50: 9.93 µM for the first, 8.7 µM for the second.

Going from `CCOC(=O)c1c(N)n(C2CC2)c2nc3ccccc3nc12` to `C=CCn1c(N)c(C(=O)OC)c2nc3ccccc3nc21`, the IC50 falls from 2.83 µM to 0.973 µM (2.9-fold). The second is the more potent here.

Compared with `CN(C)c1ccc(O)c2c1CC1CC3[C@H](N(C)C)C(O)=C(C(N)=O)C(=O)[C@@]3(O)C(O)=C1C2=O` (stereo partly drawn), `O=C(O)c1ccc([C@@H]2Nc3ccc(I)cc3[C@@H]3C=CC[C@@H]32)cc1` is 4.9-fold higher in IC50: 1.37 µM for the first, 6.66 µM for the second. The first is the more potent here.

First: Cc1ccc([N+](=O)[O-])c(NC2OC(CO)C(O)C2O)c1 (stereo not drawn)
Second: Cc1ccc2nc(NC=O)sc2c1
The IC50 of the first is lower: 12 µM for the first, greater than 60 µM for the second.

Compared with `CCCCCCn1c(N)c(C(=O)OC)c2nc3ccccc3nc21`, `Oc1ccc(-c2nnc(NCCc3ccccc3)s2)cc1` is higher in IC50: 1.43 µM for the first, greater than 60 µM for the second.

Compared with `O=[N+]([O-])c1cc(C2=NN=C(NCc3ccco3)SC2)ccc1Cl`, `c1ccc(-c2ccc(C3=NN=C(NCc4ccco4)SC3)cc2)cc1` is 1.6-fold higher in IC50: 6.62 µM for the first, 10.4 µM for the second. The first is the more potent here.

`O=C(O)CSc1nnc(-c2ccc(OC(F)(F)F)cc2)[nH]1` and `O=C(O)CSc1nnc(-c2cccs2)[nH]1` are within 1.5-fold of each other in IC50: 5.92 µM for the first, 4.6 µM for the second.

Same assay, conditions: GRK6 polypeptide inhibition assay, class symbols

First: Cc1ccc(-c2ccccc2NS(=O)(=O)c2ccc(S(=O)(=O)N3CCCCCC3)cc2)o1
Second: Cc1ccc([N+](=O)[O-])c(NC2OC(CO)C(O)C2O)c1 (stereo not drawn)
The IC50 of the first is higher: greater than 20 µM for the first, 10.1 to 20 µM for the second.

Same assay, conditions: at ATP Km, 12-pt dose response, duplicates; values only in FIG. 1

In the case of `O=S(=O)(NCCNC/C=C/c1ccc(Br)cc1)c1cccc2cnccc12` [H89, reference compound], the “IC50 values of model inhibitors” value is reported as “in good agreement with published data”.
For `Cn1cc(C2=C(c3cn(CCCSC(=N)N)c4ccccc34)C(=O)NC2=O)c2ccccc21` [Ro-31-8220, reference compound], the “IC50 values of model inhibitors” value was “in good agreement with published data”.
